Source: a melting point compilation (Tetko et al.; mined from patent text by program, amines drawn as free bases though some values may be those of a salt)

Row | Structure (SMILES) | melting point
1 | COc1cc(N)c(Cl)cc1C(=O)NC1CCN2CCCC2C1 (stereo not given) | 193 to 194 °C
2 | COCCNC(=O)c1ccc(C(=O)NS(=O)(=O)c2ccc(CCNC(=O)CCc3ccc(OC)c(OC)c3)cc2)cn1 | 87 to 89 °C
3 | CCN(CC)CCOC1c2ccccc2C(=O)N1c1ccccc1 (stereo not given) | 146 to 147 °C
4 | COC(=O)COc1cccc2c(CCS(=O)(=O)CCc3ccccc3)c(C)oc12 | 91 to 92 °C
5 | CCCS(=O)(=O)N[C@H](C(=O)NCCc1ccc(OCC#Cc2ccc(Cl)cc2)c(OC)c1)C(C)C | 131 to 133 °C
6 | CC(=O)OCCN1CCSc2ccc(Nc3ncc(Cl)c(N[C@@H]4CCCC[C@H]4NS(C)(=O)=O)n3)cc2C1 | 85 to 90 °C
7 | O=C(O)c1ccc(OCc2ccccc2CCc2ccccc2)cc1 | 178 to 180 °C
8 | C=CCOCC(C)OC(=O)COc1ccc(Cl)c2cccnc12 (stereo not given) | 59 °C
9 | O=C(NC1N=C(c2ccccc2F)c2ccccc2NC1=O)OCc1ccccc1 (racemic) | 208 °C
10 | O=C1Nc2ccccc2OC1c1ccc(Cl)cc1 (stereo not given) | 180 to 182 °C
11 | CCOC(=O)c1cnc2ccn(-c3ccncc3)n2c1=O | 103 to 104 °C
12 | Cc1c(Br)c(NC(=O)CC(C)(C)C)c(C)c2c1OCC2c1ccc(C(C)C)cc1 (stereo not given) | 174 to 175 °C
13 | CN(C)C(=O)c1ccc(S(=O)(=O)c2ccc(NC(=O)[C@@](C)(O)C(F)(F)F)c(Cl)c2)cc1 | 120 °C
14 | CN(C)CCOC(=O)CCc1c(C(=O)OCCN(C)C)[nH]c2cc(Cl)cc(Cl)c12 | 95 to 97 °C
15 | CCc1ccc(C2CCC(c3ccc(O)cc3)(c3ccc(O)cc3)CC2)cc1 | 187 to 188 °C
16 | CNc1ccc(-n2nc3c4ccccc4[nH]cc-3c2=O)cc1 | 302 to 304 °C
17 | Cc1ccc(-c2cc(=O)c(Br)c(C(=O)O)o2)cc1 | 202 to 204 °C
18 | CC(C)N(CCC12CC3CC(CC(C3)C1)C2)C(=O)NCCCc1ccncc1 | 132 to 134 °C
19 | Cc1cccc(C(=O)Nc2ccc3c(c2)CCC(NCc2ccccn2)CC3)c1-c1ccc(C(F)(F)F)cc1 (stereo not given) | 104 to 106 °C
20 | CCn1ncc(-c2ccc3c(c2)c(C2CCN(CCN4CCNC4=O)CC2)cn3-c2ccc(F)cc2)n1 | 173 to 175 °C
21 | COC(=O)C1(N(C)C(=O)Cc2c(C)cc(C)cc2C)CCN(OC)CC1 | 133 to 135 °C
22 | CCOC(=O)c1c(C)nn2ccc3c(c12)C(CC#N)CC3 (stereo not given) | 136 to 140 °C
23 | N#Cc1ccc(S(F)(F)(F)(F)F)cc1[N+](=O)[O-] | 57 to 59 °C
24 | COc1ccc(Cc2nnc(N[C@H]3CO[C@H](C(C)C)OC3)c3ccccc23)cn1 | 186 to 187 °C

Row | Structure (SMILES) | melting point
25 | Cc1cn(CC(=O)c2ccc(-c3ccc(N4C[C@H](Cn5ccnn5)OC4=O)cc3F)cn2)c(C)n1 | 78 °C
26 | Cc1ccc(CC(O)=S)cc1 | 94.5 to 95 °C
27 | CCCOc1ccccc1-c1ccc2c(c1)C=C(C(=O)Nc1ccc(CN(C)C3CCOCC3)cc1)CCS2(=O)=O | 190 to 192 °C
28 | FC(F)(F)COc1ccccc1N1CCNCC1 | 107 to 108 °C
29 | CCC(=CC(CNC(=O)c1ccncc1)=NO)C(C)[N+](=O)[O-] (stereo not given) | 145 to 148 °C
30 | COC(=O)c1cnc(C(=O)O)cn1 | 183 to 185 °C
31 | CCOC(=O)c1cc(N=C=S)c(Cl)cc1Cl | 45 to 46 °C
32 | CC(C)(C)OC(=O)NCC(=O)Nn1cccc1C(=O)c1ccccc1Cl | 156 to 158 °C
33 | O=C(NCc1ccccc1Cl)c1ccccc1CN1C(=O)C2(COc3cc4c(cc32)CCO4)c2ccccc21 (stereo not given) | 148 to 150 °C
34 | CNC1(c2cccs2)CCC(=O)CC1 | 72 to 74 °C
35 | Cc1ccccc1Nc1cccc(-c2ccccc2)c1CN | 103 to 105 °C
36 | CSC1NC(=O)N(c2ccccc2)C(=O)N1N=C(C)C (stereo not given) | 206 to 207 °C
37 | CCOc1ccc(C(=O)C2=C(O)C(=O)N(c3ccc(C)nn3)C2c2ccc(OC(F)(F)F)cc2)cc1 (stereo not given) | 255 to 257 °C
38 | CC(C)N1CCC(Nc2nc3cncnc3n2Cc2ccc(F)cc2)CC1 | 186 °C
39 | CCc1ccccc1NC=C1C(=O)N(c2ccc(NC(C)=O)cc2)N=C1C | 230 °C
40 | CCOC(=O)c1cnc2n(c1=O)C(C)CCC2N(C)c1ccccc1 (stereo not given) | 175 to 178 °C
41 | O=C(C(=O)c1ccc(C#Cc2ccccc2)cc1)c1ccc(C#Cc2ccccc2)cc1 | 168 to 170 °C
42 | CC(=O)NCCn1nnnc1Sc1ccc([N+](=O)[O-])cc1[N+](=O)[O-] | 197 to 198 °C
43 | Cc1cccc(NS(=O)(=O)c2ccc(NC3=C(Cl)C(=O)c4ccccc4C3=O)cc2)c1 | 234 to 237 °C
44 | CC(C)(C)OC(=O)c1ccc(N(Cc2ccc(C(=O)O)cc2)Cc2cc(Br)ccc2OCc2ccccc2)cc1 | 110 °C
45 | CCCCc1nc2c(n1Cc1ccc(-c3ccccc3S(=O)(=O)NC(=O)NCCC)cc1)C(=NO)CCS2 | 178 °C
46 | O=C(O)c1cn(C2CC2)c2nc(N3CCCC(n4ccnn4)C3)c(F)cc2c1=O (stereo not given) | 251 to 254 °C
47 | COc1ccc(CS(=O)(=O)c2cc(OC)c(OC)c(OC)c2)cc1 | 95 to 97 °C

The remaining lines, values ahead:

Row | melting point | Structure (SMILES)
48 | 129 to 130 °C | COc1ccc(Oc2ncnc(-c3ccc(C(F)(F)F)cc3F)c2N)cc1
49 | 125 to 126 °C | COC=C(C(=O)OC)c1ccccc1O
50 | 87 to 89 °C | C[Si](C)(C)OC(Cn1ccnc1)(Cn1cncn1)c1ccc(F)cc1F (stereo not given)
51 | 52 to 53 °C | CCCc1c(O)c(C(C)=O)cc2c1CCCC2
52 | 97 to 99 °C | CCc1cc(C(=O)O)c(C)o1
53 | 109 to 110 °C | O=C(CCNCC(O)COc1cccc2occc12)NCc1ccccc1 (stereo not given)
54 | 167 to 168 °C | NC(=O)c1cc(-c2ncc(C(F)(F)F)cc2Cl)ccc1Cl
55 | 122 °C | Cc1nc2ccccn2c(=O)c1CCN1CCC(C(=O)c2ccccc2)CC1
56 | 162 to 163 °C | CCCCCC1OCc2cc(C(N)=O)ccc2O1 (stereo not given)
57 | 137 to 140 °C | O=C(NC(Cc1ccccc1)C(=O)O)OCC1c2c(c3ccccc3c3ccccc23)-c2c1c1ccccc1c1ccccc21 (stereo not given)
58 | 57 to 59 °C | CCOC(=O)CCn1c(-c2ccc(Cl)cc2)nc2cccnc21
59 | 195 °C | CCn1c(N)c(C(N)=O)c(=O)c2cnc(Nc3cccc(N4CCOCC4)c3)nc21
60 | 228 to 230 °C | CC(C)=CCOc1ccc(C(=O)C=Cc2c[nH]c3ccccc23)c(O)c1
61 | 85 to 87 °C | CCN(CC)C(=O)c1cc(-c2ccccc2)ccc1OC
62 | 179 °C | Cc1cccc2c1OC[C@H](NC(=O)OC(C)(C)C)C(=O)N2
63 | 90 to 100 °C | Cc1ccc(-c2ccc(O)cc2)c(-c2ccc(OCCN3CCCCC3)cc2)n1
64 | 174 °C | Cc1c(C(=O)OCc2ccccc2)sc2ccc3[nH]c4c(c3c12)CN(C)CC4
65 | 118 to 119 °C | C[Si](C)(C)CCCCCNC(=O)n1cc(F)c(=O)[nH]c1=O
66 | 103 to 104 °C | O=C(O)CCCCCCCn1nnc(-c2ccccc2)c1-c1ccccc1
67 | 135 to 137 °C | O=C1CCN(Cc2ccccc2)CC1=C(c1ccccc1)c1ccccc1
68 | 98 to 99 °C | CCOc1cc(Cl)ccc1Cn1nc(OC(C)C)cc1CCCOc1c(CC(=O)O)cccc1OC
69 | 104 to 108 °C | Cc1ccc(C)c(OCc2ccccc2C(C#N)=NOC(F)F)c1
70 | 160 °C | CCCCc1nc(SC)c(C(=O)O)n1Cc1ccc(-c2nc3ccccn3c2-c2nnn[nH]2)cc1
71 | 162 °C | CCOc1cc(C)ccc1NC1CCN(CCCCNC(=O)c2ccc(-c3ccc(C(F)(F)F)cc3)cc2)CC1

Row | melting point | Structure (SMILES)
72 | 189 to 191 °C | CCCCNC(=O)NS(=O)(=O)c1ccc(CCNC(=O)N2CC(C)=CC2=O)cc1
73 | 71 to 73 °C | CC(O)C#Cc1cccc(NC(=O)Nc2ncc(C(C)C)s2)c1 (stereo not given)
74 | 134 to 138 °C | NCc1cccc(OCCC(=O)O)c1
75 | 115 °C | O=C(c1ccc(C(F)(F)F)cc1)N1CCC(Cc2ccc(C3=NCCO3)cc2)CC1
76 | 248 to 249 °C | O=C1c2cc(F)ccc2S(=O)(=O)c2cc(C3=NCCN3)ccc21
77 | 141 to 142 °C | CCOC(=O)c1c(CCCn2cncn2)nc2cc(OC)c(OC)cc2c1-c1ccc(OC)c(OC)c1
78 | 74 °C | COc1cc(N)c(OCc2ccccc2)cc1OC
79 | 231 to 234 °C | COc1ccc2c(c1OC)CCC1CN(C(=O)CCc3ccc([N+](=O)[O-])cc3)CC21 (stereo not given)
80 | 62 to 63.5 °C | c1ccc(C(c2ccccc2)N2CCc3ccccc32)cc1
81 | 211 °C | O=C1C=C(c2c[nH]c3ccc(OCc4ccccc4)cc23)C(=O)N1
82 | 130 °C | CCOC(=O)C1CN(C(=O)c2cc(OC)c(OC)c(OC)c2)CCN1C(=O)c1cc(OC)c(OC)c(OC)c1 (stereo not given)
83 | 180 to 181 °C | CC1=NC(NC(=O)Nc2cccc(C)c2)C(=O)N(CC(=O)C(C)(C)C)c2c(C)cccc21 (stereo not given)
84 | 169 to 172 °C | O=c1[nH]nc(-c2ccccc2SCc2ccccc2)o1
85 | 175 to 176 °C | Cc1noc(NC(=O)N2CCN(c3nc(-c4cccc(Cl)c4Cl)cs3)CC2)c1C
86 | 232 °C | CC(=O)Nc1cc(Cl)c([N+](=O)[O-])cc1NC(C)=O
87 | 212 to 214 °C | CCCc1nc2c(N)nc3ccc(-c4ccc(CO)cc4)cc3c2s1
88 | 87 to 94 °C | CN1CCN(c2cccc3ccc(Nc4ccccc4[N+](=O)[O-])cc23)CC1
89 | 87 to 101 °C | CCCCNS(=O)(=O)CC(O)C(O)C(CC1CCCCC1)NC(=O)[C@H](CC(C)C)NC(=O)C(Cc1ccccc1)CS(=O)(=O)C(C)(C)C (stereo not given in full)
90 | 143 to 145 °C | CCOc1ccc(C(CC(=O)OC)N2C(=O)c3ccc(N)cc3C2=O)cc1OCC (stereo not given)
91 | 80 °C | CCc1nc2c(C)c(S(=O)(=O)N(C)C)c(C)nc2n1Cc1ccc(-c2ccccc2-c2c(OC(C)C)c(=O)c2=O)cc1
92 | 107 to 108 °C | Cc1c2c(c(C=O)c(C(C)C)c1OCc1ccccc1)OC(C)(C)C2
93 | > 300 °C | O=C(O)c1ccc(-c2cc(-c3ccc(C(F)(F)F)cc3)on2)cc1
94 | 192 to 193 °C | CC(=O)c1c(C#N)nn(-c2c(Cl)cc(OC(F)(F)F)cc2Cl)c1N
95 | 152 to 154 °C | NNCCCCS(=O)(=O)O
